Where “and” joins values, the source holds several entries; their conditions need not be identical. Identical values can stand only once. Like-named read-outs stand apart in the source and are kept apart here. Marks after values point to notes of the source that are not given here.
Test: Plasma concentration after intravaginal administration of vaginal ring
Assay type: in vivo, Cynomolgus monkeys
Protocol: The study was performed in four single dose phases with 28-day sampling period after Phases 1 and 2 (7-day washout period between doses). Vaginal rings were investigated for Pritelivir free base and Pritelivir mesylate salt at two dose levels per formulation. The test items were applied as vaginal ring in Phases 1 and 2 to female monkeys. The study design is below in the Table 3.
Venous blood samples were taken from all animals at the following times in relation to dosing.
• Blood sample site Femoral site • Blood volume 1.0 mL • Anticoagulant For phase 1 samples, Day 1-3 only, blood was sampled into standard HLS vials containing lithium heparin and 20 μL aqueous phosphoric acid (3.5 molar). Thereafter, blood was collected into tubes containing lithium heparin only. Plasma was obtained from all samples by centrifugation. Samples were appropriately labeled and stored deep frozen (−20° C. or below) until analysis • Total no. of blood samples 350 Vaginal Fluid Sampling
After suitable dilution, plasma and vaginal samples were analyzed on UPLC system Waters Acquity UPLC-HSS PFP column with 1.8 μm particles (100×2.1 mm) by gradient elution using 0.1% formic acid and methanol containing 0.1% formic acid. For detection, a time-of-flight mass spectrometer (Xevo GS-2 QTOF, Waters) was used operating in positive ionization mode (MSe analysis). The samples were analyzed for their content of Pritelivir free base.
The study was designed to obtain information on the time-course of unchanged test compound concentrations in plasma and vaginal fluid/tissue, following single intravaginal administration of rings to female Cynomolgus monkeys. Objectives of this study were to determine the safety and tolerance of Pritelivir loaded rings, as well as systemic and local exposure (plasma, vaginal fluid and vaginal and vulval tissue, respectively). Local exposures were compared with in vitro efficacy data of Pritelivir to get an idea on initial pharmacokinetic/pharmacodynamic (PK/PD) parameters for vaginal rings, i.e. to assess the potential ability of a Pritelivir loaded ring to suppress viral replication in the target tissue. Table 9 gives an overview on the EC50 values of Pritelivir on HSV-1 and HSV-2 Data source: Field, H. J., et al., Baseline sensitivity of HSV-1 and HSV-2 clinical isolates and defined acyclovir-resistant strains to the helicase-primase inhibitor pritelivir. Antiviral Res, 2013. 100(2): p. 297-9. EC50=50% effective concentration.

[1] = female, cynomolgus monkey, plasma, other: intravaginal (vaginal ring), 40 mg, ring 40 mg free base, Phase 1 Group 1, group mean, read-out: Plasma concentration of Pritelivir free base, Mean
[2] = female, cynomolgus monkey, plasma, other: intravaginal (vaginal ring), 40 mg, ring 40 mg free base, Phase 1 Group 1, individual animals, read-out: Plasma concentration of Pritelivir free base
[3] = female, cynomolgus monkey, plasma, other: intravaginal (vaginal ring), 240 mg, ring 240 mg free base, Phase 2 Group 1, group mean, read-out: Plasma concentration of Pritelivir free base, Mean
[4] = female, cynomolgus monkey, plasma, other: intravaginal (vaginal ring), 240 mg, ring 240 mg free base, Phase 2 Group 1, individual animals, read-out: Plasma concentration of Pritelivir free base

All plasma concentrations of Pritelivir (Phases 1 and 2, up to 28 Days, all rings): < 132 nM and < 54 μg/L | concentration at 0.0417 d (female, cynomolgus monkey, plasma, other: intravaginal (vaginal ring), 40 mg, ring 40 mg free base, Phase 1 Group 1, 0.0417 d, group mean, read-out: Plasma concentration of Pritelivir free base, Mean): 3.43 ng/mL | concentration at 0.0417 d (female, cynomolgus monkey, plasma, other: intravaginal (vaginal ring), 40 mg, ring 40 mg free base, Phase 1 Group 1, 0.0417 d, individual animals, read-out: Plasma concentration of Pritelivir free base): 2.44 ng/mL | concentration at 0.167 d [1]: 5.61 ng/mL | concentration at 0.167 d [2]: 2.38 ng/mL | concentration at 0.333 d [1]: 6.4 ng/mL | concentration at 0.333 d [2]: 2.22 ng/mL | concentration at 4 d [1]: 3.86 ng/mL | concentration at 4 d [2]: 3.21 ng/mL | concentration at 7 d [1]: 3.66 ng/mL | concentration at 7 d [2]: 3.55 ng/mL | concentration at 10 d [1]: 3.36 ng/mL | concentration at 10 d [2]: 3.92 ng/mL | concentration at 14 d [1]: 3.31 ng/mL | concentration at 14 d [2]: 2.81 ng/mL | concentration at 17 d [1]: 3.2 ng/mL | concentration at 17 d [2]: 2.64 ng/mL | concentration at 21 d [1]: 2.91 ng/mL | concentration at 21 d [2]: 3 ng/mL | concentration at 24 d [1]: 2.99 ng/mL | concentration at 24 d [2]: 3.21 ng/mL | concentration at 28 d [1]: 2.79 ng/mL | concentration at 28 d [2]: 2.6 ng/mL | concentration at 0.0833 d (female, cynomolgus monkey, plasma, other: intravaginal (vaginal ring), 240 mg, ring 240 mg free base, Phase 2 Group 1, 0.0833 d, group mean, read-out: Plasma concentration of Pritelivir free base, Mean): 3.68 ng/mL | concentration at 0.0833 d (female, cynomolgus monkey, plasma, other: intravaginal (vaginal ring), 240 mg, ring 240 mg free base, Phase 2 Group 1, 0.0833 d, individual animals, read-out: Plasma concentration of Pritelivir free base): 4.41 ng/mL | concentration at 0.167 d [3]: 4.58 ng/mL | concentration at 0.333 d [3]: 5.87 ng/mL | concentration at 3 d (female, cynomolgus monkey, plasma, other: intravaginal (vaginal ring), 240 mg, ring 240 mg free base, Phase 2 Group 1, 3 d, individual animals, read-out: Plasma concentration of Pritelivir free base): 26.8 ng/mL | concentration at 4 d [4]: 26 ng/mL | concentration at 7 d [4]: 16.4 ng/mL | concentration at 10 d [4]: 9.46 ng/mL | concentration at 14 d [4]: 9.48 ng/mL | concentration at 17 d [4]: 10.8 ng/mL | concentration at 21 d [4]: 7.78 ng/mL | concentration at 24 d [4]: 9.71 ng/mL | concentration at 28 d [4]: 12.7 ng/mL | Plasma concentration of Pritelivir free base (ring 40 mg free base, Phase 1 Group 1, 0 d (pre-dose), individual animals): 2.70 ^a μg/L | Plasma concentration of Pritelivir free base (ring 40 mg free base, Phase 1 Group 1, 0.0417 d, individual animals): 4.73 ^ μg/L and 3.11 ^a μg/L | Plasma concentration of Pritelivir free base, Mean (ring 40 mg free base, Phase 1 Group 1, 0.0833 d, group mean): 5.28 ^ μg/L
SMILES: Cc1nc(N(C)C(=O)Cc2ccc(-c3ccccn3)cc2)sc1S(N)(=O)=O [Pritelivir free base]

Reference: patent US11213516B2, “Intravaginally applicable devices comprising antiviral compounds” (AICURIS ANTI-INFECTIVE CURES GMBH, priority 2017, dated 2022)
